Several values for one entry are separate records, joined by “and”; a condition that tells them apart may be missing. Equal values may be shown once.
Molecular target: T1, Follicle Stimulating Hormone Receptor (FSHR) (Homo sapiens, UniProt P23945)
T1 construct: HA (N); expressed in transfected cells; host or cells: CHO-K1, transient transfection, pHM6 vector (CMV promoter)
T1 sequence (P23945 18-695): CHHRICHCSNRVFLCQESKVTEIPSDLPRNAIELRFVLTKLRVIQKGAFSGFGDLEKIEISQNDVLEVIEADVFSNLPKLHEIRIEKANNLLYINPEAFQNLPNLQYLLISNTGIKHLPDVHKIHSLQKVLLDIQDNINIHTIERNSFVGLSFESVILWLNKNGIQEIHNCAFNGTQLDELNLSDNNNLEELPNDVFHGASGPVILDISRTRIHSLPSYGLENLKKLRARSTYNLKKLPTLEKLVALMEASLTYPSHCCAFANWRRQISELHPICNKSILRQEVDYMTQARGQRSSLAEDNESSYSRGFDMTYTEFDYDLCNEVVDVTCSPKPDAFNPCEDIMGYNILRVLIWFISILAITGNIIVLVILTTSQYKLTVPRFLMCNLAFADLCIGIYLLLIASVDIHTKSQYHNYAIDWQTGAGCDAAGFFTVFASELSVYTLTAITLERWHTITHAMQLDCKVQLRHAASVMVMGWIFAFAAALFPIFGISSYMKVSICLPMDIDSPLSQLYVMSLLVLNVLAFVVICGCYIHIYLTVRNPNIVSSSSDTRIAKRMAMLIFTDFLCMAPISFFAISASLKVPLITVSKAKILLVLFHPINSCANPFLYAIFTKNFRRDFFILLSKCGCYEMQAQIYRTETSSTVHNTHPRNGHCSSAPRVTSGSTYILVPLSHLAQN
Assay: HTRF cAMP agonist assay, FSHR, transiently transfected CHO-K1 cells
Assay type: cell-based
Conditions: CHO-K1 cells transiently expressing human FSHR, read-out: IC50 FSHR LANCE CAMP

Row | SMILES | IC50
1 | COc1cc2c(cc1-c1cncc(C(N)=O)c1)-c1c(c(C(=O)N3CC[C@H]4CN(C)C[C@H]43)nn1-c1cc(Cl)cc(Cl)c1)CC2 [Compound 8-30] | 1720 nM
2 | COc1cc2c(cc1-c1cncc(C(N)=O)c1)-c1c(c(C(=O)N3CCC4C3CCN4C(=O)OC(C)(C)C)nn1-c1cc(Cl)cc(Cl)c1)CC2 (stereo not shown) [Compound 8-31A] | 145 nM
3 | COc1cc2c(cc1-c1cncc(C(N)=O)c1)-c1c(c(C(=O)N3CCC4C3CCN4C)nn1-c1cc(Cl)cc(Cl)c1)CC2 (stereo not shown) [Compound 8-31] | 1760 nM
4 | CCN(C)C(=O)c1nn(-c2cc(Cl)cc(Cl)c2)c2c1CCc1cc(OC)c(-c3cncc(C(N)=O)c3)cc1-2 [Compound 8-34] | 13.4 nM
5 | COc1cc2c(cc1-c1cncc(C(N)=O)c1)-c1c(c(C(=O)N(C)C(C)C)nn1-c1cc(Cl)cc(Cl)c1)CC2 [Compound 8-36] | 4.17 nM
6 | COc1cc2c(cc1-c1cncc(C(N)=O)c1)-c1c(c(C(=O)N(C)C3CC3)nn1-c1cc(Cl)cc(Cl)c1)CC2 [Compound 8-39] | 15.5 nM
7 | CCN(C(=O)c1nn(-c2cc(Cl)cc(Cl)c2)c2c1CCc1cc(OC)c(-c3cncc(C(N)=O)c3)cc1-2)C(C)(C)C [Compound 8-41] | 1.8 nM and 2.46 nM
8 | COc1cc2c(cc1-c1cncc(C(N)=O)c1)-c1c(c(C(=O)N3CCOC[C@@H]3C)nn1-c1cc(Cl)cc(Cl)c1)CC2 [Compound 8-43] | 2.59 nM
9 | COc1cc2c(cc1-c1cncc(C(N)=O)c1)-c1c(c(C(=O)N3CCC[C@H]3C)nn1-c1cc(Cl)cc(Cl)c1)CC2 [Compound 8-45] | 17.4 nM
10 | COc1cc2c(cc1-c1cncc(C(N)=O)c1)-c1c(c(C(=O)N(C)C3CCS(=O)(=O)C3)nn1-c1cc(Cl)cc(Cl)c1)CC2 (stereo not shown) [Compound 8-46] | 177 nM
11 | COc1cc2c(cc1-c1cncc(C(N)=O)c1)-c1c(c(C(=O)N(C)C3CCCC3)nn1-c1cc(Cl)cc(Cl)c1)CC2 [Compound 8-47] | 29.3 nM
12 | COc1cc2c(cc1-c1cncc(C(N)=O)c1)-c1c(c(C(=O)N3[C@@H](C)COC[C@@H]3C)nn1-c1cc(Cl)cc(Cl)c1)CC2 [Compound 8-50] | 3.43 nM
13 | COc1cc2c(cc1-c1cncc(C(N)=O)c1)-c1c(c(C(=O)N3CCOC3(C)C)nn1-c1cc(Cl)cc(Cl)c1)CC2 [Compound 8-51, 5-(1-(3,5-dichlorophenyl)-3-(2,2-dimethyloxazolidine-3-carbonyl)-7-methoxy-4,5-dihydro-1H-benzo[g]indazol-8-yl)nicotinamide] | 3.06 nM
14 | COc1cc2c(cc1-c1cncc(C(N)=O)c1)-c1c(c(C(=O)NC(C)CO)nn1-c1cc(Cl)cc(Cl)c1)CC2 (stereo not shown) [Compound 8-54A] | 222 nM
15 | COc1cc2c(cc1-c1cncc(C(N)=O)c1)-c1c(c(C(=O)N3CCNC[C@H]3C(F)(F)F)nn1-c1cc(Cl)cc(Cl)c1)CC2 [Compound 8-57, 5-[1-(3,5-dichlorophenyl)-7-methoxy-3-[(2S)-2-(trifluoromethyl)piperazine-1-carbonyl]-4,5-dihydrobenzo[g]indazol-8-yl]pyridine-3-carboxamide] | 3.89 nM
16 | COc1cc2c(cc1-c1cncc(C(N)=O)c1)-c1c(c(C(=O)N3CCN(C4CC4)CC3(C)C)nn1-c1cc(Cl)cc(Cl)c1)CC2 [Compound 8-62] | 122 nM
17 | CCCN1CCN(C(=O)c2nn(-c3cc(Cl)cc(Cl)c3)c3c2CCc2cc(OC)c(-c4cncc(C(N)=O)c4)cc2-3)C(C)(C)C1 [Compound 8-63] | 120 nM
18 | COc1cc2c(cc1-c1cncc(C(N)=O)c1)-c1c(c(C(=O)N3CCN(CC(=O)O)CC3(C)C)nn1-c1cc(Cl)cc(Cl)c1)CC2 [Compound 8-64] | 3400 nM
19 | COc1cc2c(cc1-c1cncc(C(N)=O)c1)-c1c(c(C(=O)N3CCCC(=O)C3(C)C)nn1-c1cc(Cl)cc(Cl)c1)CC2 [Compound 8-67, 5-(1-(3,5-dichlorophenyl)-3-(2,2-dimethyl-3-oxopiperidine-1-carbonyl)-7-methoxy-4,5-dihydro-1H-benzo[g]indazol-8-yl)nicotinamide] | 4.24 nM
20 | COc1cc2c(cc1-c1cncc(C(N)=O)c1)-c1c(c(C(=O)N3CCN(CCO)C(=O)C3(C)C)nn1-c1cc(Cl)cc(Cl)c1)CC2 [Compound 8-70] | 140 nM
21 | COc1cc2c(cc1-c1cncc(C(N)=O)c1)-c1c(c(C(=O)N3CNC(=O)C3(C)C)nn1-c1cc(Cl)cc(Cl)c1)CC2 [Compound 8-72] | 8.99 nM
22 | CC1(C)C(=O)NCCN1C(=O)c1nn(-c2ccccn2)c2c1CCc1ccc(-c3cncc(C(N)=O)c3)cc1-2 [Compound 8-75] | 27400 nM
23 | C[C@H]1CNC(=O)[C@H](C)N1C(=O)c1nn(-c2ccccn2)c2c1CCc1ccc(-c3cccnc3)cc1-2 [Compound 8-79] | 6090 nM

Continued, values first:

Row | IC50 | SMILES
24 | 2180 nM | COc1cc2c(cc1-c1cncc(C(N)=O)c1)-c1c(c(C(=O)N(C)C3CCN(C)C3)nn1-c1cc(Cl)cc(Cl)c1)CC2 (stereo not shown) [Compound 8-28]
25 | 27.3 nM | COc1cc2c(cc1-c1cncc(C(N)=O)c1)-c1c(c(C(=O)N3C[C@@H]4C[C@H]3CO4)nn1-c1cc(Cl)cc(Cl)c1)CC2 [Compound 8-29]
26 | 0.825 nM | COc1cc2c(cc1-c1cncc(C(N)=O)c1)-c1c(c(C(=O)N3COCC3(C)C)nn1-c1cc(Cl)cc(Cl)c1)CC2 [Compound 8-32]
27 | 105 nM | COc1cc2c(cc1-c1cncc(C(N)=O)c1)-c1c(c(C(=O)N3CC4CC3CN4C(=O)OC(C)(C)C)nn1-c1cc(Cl)cc(Cl)c1)CC2 (stereo not shown) [Compound 8-33A]
28 | 441 nM | COc1cc2c(cc1-c1cncc(C(N)=O)c1)-c1c(c(C(=O)N3CC4CC3CN4)nn1-c1cc(Cl)cc(Cl)c1)CC2 (stereo not shown) [Compound 8-33]
29 | 3.99 nM | CCN(CC)C(=O)c1nn(-c2cc(Cl)cc(Cl)c2)c2c1CCc1cc(OC)c(-c3cncc(C(N)=O)c3)cc1-2 [Compound 8-35]
30 | 48.4 nM | COc1cc2c(cc1-c1cncc(C(N)=O)c1)-c1c(c(C(=O)N3CCCC3)nn1-c1cc(Cl)cc(Cl)c1)CC2 [Compound 8-37]
31 | 9.16 nM | COc1cc2c(cc1-c1cncc(C(N)=O)c1)-c1c(c(C(=O)N3CCCC3C)nn1-c1cc(Cl)cc(Cl)c1)CC2 (stereo not shown) [Compound 8-38]
32 | 6.76 nM | COc1cc2c(cc1-c1cncc(C(N)=O)c1)-c1c(c(C(=O)N(C)C(C)C3CC3)nn1-c1cc(Cl)cc(Cl)c1)CC2 (stereo not shown) [Compound 8-42]
33 | 2.04 nM | CC[C@H]1COCCN1C(=O)c1nn(-c2cc(Cl)cc(Cl)c2)c2c1CCc1cc(OC)c(-c3cncc(C(N)=O)c3)cc1-2 [Compound 8-44]
34 | 2.4 nM | COc1cc2c(cc1-c1cncc(C(N)=O)c1)-c1c(c(C(=O)N3[C@H](C)COC[C@@H]3C)nn1-c1cc(Cl)cc(Cl)c1)CC2 [Compound 8-49]
35 | 39.3 nM | COc1cc2c(cc1-c1cncc(C(N)=O)c1)-c1c(c(C(=O)NC(C)(C)CO)nn1-c1cc(Cl)cc(Cl)c1)CC2 [Compound 8-52A]
36 | 6.56 nM | COc1cc2c(cc1-c1cncc(C(N)=O)c1)-c1c(c(C(=O)N(C)CC(F)(F)F)nn1-c1cc(Cl)cc(Cl)c1)CC2 [Compound 8-55]
37 | 61.3 nM | COc1cc2c(cc1-c1cncc(C(N)=O)c1)-c1c(c(C(=O)N(CC(F)(F)F)CC(F)(F)F)nn1-c1cc(Cl)cc(Cl)c1)CC2 [Compound 8-56]
38 | 102 nM | COc1cc2c(cc1-c1cncc(C(N)=O)c1)-c1c(c(C(=O)N3CCN(CC(F)(F)F)CC3(C)C)nn1-c1cc(Cl)cc(Cl)c1)CC2 [Compound 8-58, 5-(1-(3,5-dichlorophenyl)-3-(2,2-dimethyl-4-(2,2,2-trifluoroethyl)piperazine-1-carbonyl)-7-methoxy-4,5-dihydro-1H-benzo[g]indazol-8-yl)nicotinamide]
39 | 38.9 nM | CCN1CCN(C(=O)c2nn(-c3cc(Cl)cc(Cl)c3)c3c2CCc2cc(OC)c(-c4cncc(C(N)=O)c4)cc2-3)C(C)(C)C1 [Compound 8-60]
40 | 192 nM | COc1cc2c(cc1-c1cncc(C(N)=O)c1)-c1c(c(C(=O)N3CCN(C(C)C)CC3(C)C)nn1-c1cc(Cl)cc(Cl)c1)CC2 [Compound 8-61, 5-(1-(3,5-dichlorophenyl)-3-(4-isopropyl-2,2-dimethylpiperazine-1-carbonyl)-7-methoxy-4,5-dihydro-1H-benzo[g]indazol-8-yl)nicotinamide]
41 | 1320 nM | COc1cc2c(cc1-c1cncc(C(N)=O)c1)-c1c(c(C(=O)N3CCN(CCC(=O)O)CC3(C)C)nn1-c1cc(Cl)cc(Cl)c1)CC2 [Compound 8-65]
42 | 2790 nM | COc1cc2c(cc1-c1cncc(C(N)=O)c1)-c1c(c(C(=O)N3CCN(CCN)CC3(C)C)nn1-c1cc(Cl)cc(Cl)c1)CC2 [Compound 8-66]
43 | 82.2 nM | COc1cc2c(cc1-c1cncc(C(N)=O)c1)-c1c(c(C(=O)N3CCN(C)C(=O)C3(C)C)nn1-c1cc(Cl)cc(Cl)c1)CC2 [Compound 8-69]
44 | 3730 nM | COc1cc2c(cc1-c1cncc(C(N)=O)c1)-c1c(c(C(=O)N3CCN(CCN)C(=O)C3(C)C)nn1-c1cc(Cl)cc(Cl)c1)CC2 [Compound 8-71]
45 | 453 nM | COc1cc2c(cc1-c1cncc(C(N)=O)c1)-c1c(c(C(=O)N3CC4CC(C3)N4)nn1-c1cc(Cl)cc(Cl)c1)CC2 [Compound 8-74, 5-(3-(3,6-diazabicyclo[3.1.1]heptane-3-carbonyl)-1-(3,5-dichlorophenyl)-7-methoxy-4,5-dihydro-1H-benzo[g]indazol-8-yl)nicotinamide]
46 | 2430 nM | CCC1C(=O)NCCN1C(=O)c1nn(-c2ccccn2)c2c1CCc1ccc(-c3cccnc3)cc1-2 (stereo not shown) [Compound 8-78]

— patent US20260008783A1, “MODULATORS OF FSHR AND USES THEREOF” (Celmatix Inc., priority 2022, published 2026)
